Reference: PubChem BioAssay AID330 (DTP/NCI, 2004)
Where “and” joins values, the source holds several entries; their conditions need not be identical. Equal values may be shown once. Toxic doses and inconclusive results are not listed. The calls were made as follows: active = survival T/C of 150% or more; inactive = T/C below 125% in these data.

Test system: P388 leukemia ip, CD2F1 mice, survival T/C
Assay: NCI In Vivo Anticancer Drug Screen. Data for tumor model P388 Leukemia (intraperitoneal) in CD2F1 (CDF1) mice
Settings: endpoint: median survival time, higher = longer survival
How it was run: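 Mice carrying the transplanted tumor received test compound or vehicle. Survival was recorded in each group, and the value is the treated-group measurement divided by that of the vehicle-treated control group.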

[1] = dose: 100.0 mg/kg/injection, schedule: Q04DX003 (ip), vehicle: Klucel (hydroxypropylcellulose) (HPC)
[2] = dose: 200.0 mg/kg/injection, schedule: Q04DX003 (ip), vehicle: Klucel (hydroxypropylcellulose) (HPC)
[3] = dose: 50.0 mg/kg/injection, schedule: Q01DX009 (ip), vehicle: saline
[4] = dose: 100.0 mg/kg/injection, schedule: Q01DX009 (ip), vehicle: saline
[5] = dose: 200.0 mg/kg/injection, schedule: Q01DX009 (ip), vehicle: saline
[6] = dose: 25.0 mg/kg/injection, schedule: Q01DX005 (ip), vehicle: saline with Tween-80
[7] = dose: 50.0 mg/kg/injection, schedule: Q01DX005 (ip), vehicle: saline with Tween-80
[8] = dose: 100.0 mg/kg/injection, schedule: Q01DX005 (ip), vehicle: saline with Tween-80
[9] = dose: 200.0 mg/kg/injection, schedule: Q01DX005 (ip), vehicle: saline with Tween-80
[10] = dose: 25.0 mg/kg/injection, schedule: Q01DX005 (ip), vehicle: Klucel (hydroxypropylcellulose) (HPC)
[11] = dose: 50.0 mg/kg/injection, schedule: Q01DX005 (ip), vehicle: Klucel (hydroxypropylcellulose) (HPC)
[12] = dose: 100.0 mg/kg/injection, schedule: Q04DX002 (ip), vehicle: saline with Tween-80
[13] = dose: 200.0 mg/kg/injection, schedule: Q04DX002 (ip), vehicle: saline with Tween-80
[14] = dose: 400.0 mg/kg/injection, schedule: Q04DX003 (ip), vehicle: Klucel (hydroxypropylcellulose) (HPC)
[15] = dose: 25.0 mg/kg/injection, schedule: Q01DX009 (ip), vehicle: saline
[16] = dose: 50.0 mg/kg/injection, schedule: Q04DX002 (ip), vehicle: saline with Tween-80

Measured: T/C

CN1CCC/C1=C/C(=O)c1cccc([N+](=O)[O-])c1
inactive: [1] 108 % of control | [2] 106 % of control

CCN(CC)CCOC(=O)c1c(C)cc(C)cc1C
inactive: dose: 25.0 mg/kg/injection, schedule: Q04DX003 (ip), vehicle: saline 100 % of control | dose: 50.0 mg/kg/injection, schedule: Q04DX003 (ip), vehicle: saline 106 % of control | dose: 100.0 mg/kg/injection, schedule: Q04DX003 (ip), vehicle: saline 93 % of control

CCCCCCCCCCCCCCCOc1cc(OC)ccc1-c1nnc(SC)s1
inactive: [3] 100 % of control | [4] 91 % of control | [5] 100 % of control

Nc1ccc2ccc(N)cc2c1
inactive: [6] 105 % of control | [7] 98 % of control and 104 % of control | [8] 103 % of control and 113 % of control | [9] 122 % of control and 123 % of control

O=[N+]([O-])c1ccc(-c2cn3nc(-c4ccccc4)c(-c4ccccc4)nc3n2)cc1
inactive: dose: 12.5 mg/kg/injection, schedule: Q01DX005 (ip), vehicle: Klucel (hydroxypropylcellulose) (HPC) 110 % of control | [10] 98 % of control | [11] 108 % of control and 93 % of control

COc1ccc(C(C#N)C(=O)CCC(=O)C(C#N)c2ccc(OC)c(OC)c2)cc1OC (stereo unspecified)
inactive: [12] 106 % of control | [13] 98 % of control

Cc1c2ccncc2c(C)c2c1[nH]c1ccc(-c3ccccc3)cc12
inactive: dose: 20.0 mg/kg/injection, schedule: Q01DX001 (ip), vehicle: saline with Tween-80 102 % of control | dose: 40.0 mg/kg/injection, schedule: Q01DX001 (ip), vehicle: saline with Tween-80 100 % of control | dose: 80.0 mg/kg/injection, schedule: Q01DX001 (ip), vehicle: saline with Tween-80 99 % of control

CCC1(O)C[C@@]2(CCCCC2I)OC1=O (stereo partly specified)
inactive: [7] 100 % of control | [8] 103 % of control | [9] 106 % of control

c1ccc(C2(c3ccccc3)CN3CCSC3=N2)cc1
inactive: dose: 12.5 mg/kg/injection, schedule: Q04DX003 (ip), vehicle: saline with Tween-80 104 % of control | dose: 25.0 mg/kg/injection, schedule: Q04DX003 (ip), vehicle: saline with Tween-80 103 % of control | dose: 50.0 mg/kg/injection, schedule: Q04DX003 (ip), vehicle: saline with Tween-80 99 % of control | dose: 100.0 mg/kg/injection, schedule: Q04DX003 (ip), vehicle: saline with Tween-80 108 % of control | dose: 200.0 mg/kg/injection, schedule: Q04DX003 (ip), vehicle: saline with Tween-80 103 % of control

O=NNc1cnc2ccccc2n1
inactive: dose: 3.12 mg/kg/injection, schedule: Q01DX009 (ip), vehicle: water 106 % of control | dose: 6.25 mg/kg/injection, schedule: Q01DX009 (ip), vehicle: water 103 % of control | dose: 12.5 mg/kg/injection, schedule: Q01DX009 (ip), vehicle: water 106 % of control and 112 % of control | dose: 25.0 mg/kg/injection, schedule: Q01DX009 (ip), vehicle: water 120 % of control and 121 % of control | dose: 50.0 mg/kg/injection, schedule: Q01DX009 (ip), vehicle: water 113 % of control and 87 % of control

CC(C)(C)c1cc(CO)c(Sc2c(CO)cc(C(C)(C)C)cc2CO)c(CO)c1
inactive: dose: 12.5 mg/kg/injection, schedule: Q01DX001 (ip), vehicle: saline with Tween-80 92 % of control | dose: 25.0 mg/kg/injection, schedule: Q01DX001 (ip), vehicle: saline with Tween-80 100 % of control | dose: 50.0 mg/kg/injection, schedule: Q01DX001 (ip), vehicle: saline with Tween-80 95 % of control

C=C(C)[C@@H]1CC[C@](C)(CCC#N)/C(=N\NC(N)=O)C1
inactive: [1] 99 % of control | [2] 102 % of control | [14] 89 % of control

CCc1nc(N)nc(N)c1-c1ccc(Cl)c(N=NN(C)C)c1
inactive: [7] 92 % of control | [8] 97 % of control | [9] 105 % of control

COc1cc2c(c(OC(C)=O)c1OC)-c1ccc(OC)c(=O)cc1[C@@H](NC(C)=O)CC2
inactive: dose: 1.25 mg/kg/injection, schedule: Q01DX009 (ip), vehicle: Klucel (hydroxypropylcellulose) (HPC) 94 % of control | dose: 2.5 mg/kg/injection, schedule: Q01DX009 (ip), vehicle: Klucel (hydroxypropylcellulose) (HPC) 92 % of control | dose: 5.0 mg/kg/injection, schedule: Q01DX009 (ip), vehicle: Klucel (hydroxypropylcellulose) (HPC) 100 % of control | dose: 10.0 mg/kg/injection, schedule: Q01DX009 (ip), vehicle: Klucel (hydroxypropylcellulose) (HPC) 100 % of control | dose: 20.0 mg/kg/injection, schedule: Q01DX009 (ip), vehicle: Klucel (hydroxypropylcellulose) (HPC) 109 % of control

O=S(=O)(c1ccc(N=C=S)cc1)c1ccc(N=C=S)cc1
inactive: [10] 112 % of control

[Co].[NH-]CC[NH-].[NH-]CC[NH-].[NH-]CC[NH-]
inactive: [15] 100 % of control | [3] 111 % of control | [16] 100 % of control | [4] 105 % of control | [12] 102 % of control | [13] 106 % of control

CCn1c(=O)c2n[nH]nc2n(CCCl)c1=O
inactive: dose: 50.0 mg/kg/injection, schedule: Q01DX009 (ip), vehicle: Klucel (hydroxypropylcellulose) (HPC) 101 % of control | dose: 100.0 mg/kg/injection, schedule: Q01DX009 (ip), vehicle: Klucel (hydroxypropylcellulose) (HPC) 103 % of control | dose: 200.0 mg/kg/injection, schedule: Q01DX009 (ip), vehicle: Klucel (hydroxypropylcellulose) (HPC) 96 % of control

Cc1ccc(C)c([N+](=O)[O-])c1C(=O)O
inactive: dose: 100.0 mg/kg/injection, schedule: Q04DX003 (ip), vehicle: saline + alcohol 98 % of control | dose: 200.0 mg/kg/injection, schedule: Q04DX003 (ip), vehicle: saline + alcohol 98 % of control

CSCc1ccc(C(N)C(=O)O)cc1 (stereo unspecified)
inactive: [16] 99 % of control | [12] 96 % of control | [13] 99 % of control

CN1C2CCC1CC(OC(=O)/C=C/C(=O)OC1CC3CCC(C1)N3C)C2 (stereo unspecified)
inactive: dose: 60.0 mg/kg/injection, schedule: Q01DX005 (ip), vehicle: suspension in saline 91 % of control | dose: 120.0 mg/kg/injection, schedule: Q01DX005 (ip), vehicle: suspension in saline 91 % of control

Cn1ccc(N)nc1=O
inactive: dose: 50.0 mg/kg/injection, schedule: Q01DX005 (ip), vehicle: saline 101 % of control | dose: 100.0 mg/kg/injection, schedule: Q01DX005 (ip), vehicle: saline 107 % of control | dose: 200.0 mg/kg/injection, schedule: Q01DX005 (ip), vehicle: saline 104 % of control

CCO/C([O-])=C(\C=N\S(=O)(=O)c1ccc(C)cc1)[n+]1ccc(C)cc1
inactive: [1] 103 % of control | [2] 100 % of control | [14] 101 % of control

CCOC(CSc1ncnc2nc[nH]c12)OCC
inactive: [3] 100 % of control | [4] 96 % of control | [5] 112 % of control

COc1ccc(COCc2ccc(OC)c(O)c2)cc1O
inactive: dose: 50.0 mg/kg/injection, schedule: Q01DX009 (ip), vehicle: saline with Tween-80 101 % of control | dose: 100.0 mg/kg/injection, schedule: Q01DX009 (ip), vehicle: saline with Tween-80 99 % of control

Oc1cccnc1
inactive: [15] 100 % of control and 103 % of control | [3] 99 % of control and 102 % of control | [4] 102 % of control and 103 % of control | [5] 103 % of control and 112 % of control | dose: 400.0 mg/kg/injection, schedule: Q01DX009 (ip), vehicle: saline 100 % of control and 108 % of control | dose: 600.0 mg/kg/injection, schedule: Q01DX009 (ip), vehicle: saline 102 % of control and 111 % of control

CSC(=S)n1nc(-c2ccccc2)c(N=Nc2cccc(Cl)c2Cl)c1-c1ccccc1
inactive: dose: 100.0 mg/kg/injection, schedule: Q01DX001 (ip), vehicle: saline with Tween-80 87 % of control | dose: 200.0 mg/kg/injection, schedule: Q01DX001 (ip), vehicle: saline with Tween-80 87 % of control | dose: 400.0 mg/kg/injection, schedule: Q01DX001 (ip), vehicle: saline with Tween-80 97 % of control

O=[N+]([O-])c1ccc(/C=N/Nc2nnc(-c3ccccc3)c(-c3ccccc3)n2)o1
inactive: dose: 12.5 mg/kg/injection, schedule: Q01DX005 (ip), vehicle: saline with Tween-80 106 % of control | [6] 103 % of control | [7] 93 % of control and 96 % of control | [9] 88 % of control

COC(=O)C(CSSCC(C(=O)NC(Cc1ccccc1)C(=O)NCC(=O)OC(C)(C)C)N1C(=O)CCC1=O)NC(=O)OCc1ccccc1 (stereo unspecified)
inactive: [11] 103 % of control | dose: 100.0 mg/kg/injection, schedule: Q01DX005 (ip), vehicle: Klucel (hydroxypropylcellulose) (HPC) 93 % of control | dose: 200.0 mg/kg/injection, schedule: Q01DX005 (ip), vehicle: Klucel (hydroxypropylcellulose) (HPC) 96 % of control
